{
  "source": "paper PMC7345279",
  "about": "(Antibiotics, 2020)",
  "key": {"[1]": {"system": "plasma proteins", "details": "cited from earlier work"}, "[2]": {"system": "α-1-acid glycoprotein (AGP)", "experiment": "Binding of FLU to AGP solutions (0.9 and […]), alone and with IMA (ultrafiltration, LC-MS/MS)", "details": "for % Unb / Total conc / Unb Conc: alone"}, "[3]": {"target": "HSA (Homo sapiens, UniProt P02768)", "sequence (P02768 25-609)": "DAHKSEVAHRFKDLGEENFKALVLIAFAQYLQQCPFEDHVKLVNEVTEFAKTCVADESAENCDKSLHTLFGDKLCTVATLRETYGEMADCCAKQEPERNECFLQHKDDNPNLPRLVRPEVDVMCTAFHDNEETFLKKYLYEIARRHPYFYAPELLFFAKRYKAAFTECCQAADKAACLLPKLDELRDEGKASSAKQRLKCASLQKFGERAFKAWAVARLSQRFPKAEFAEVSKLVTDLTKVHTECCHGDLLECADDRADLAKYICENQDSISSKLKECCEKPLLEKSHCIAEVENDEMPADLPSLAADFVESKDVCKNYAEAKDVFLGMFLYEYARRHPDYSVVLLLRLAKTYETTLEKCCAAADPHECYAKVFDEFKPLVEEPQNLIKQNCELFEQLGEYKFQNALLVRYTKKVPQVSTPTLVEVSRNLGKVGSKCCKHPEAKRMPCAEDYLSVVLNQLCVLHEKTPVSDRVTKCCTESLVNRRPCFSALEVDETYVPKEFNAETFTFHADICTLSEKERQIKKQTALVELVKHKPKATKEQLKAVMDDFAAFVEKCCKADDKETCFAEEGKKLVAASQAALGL", "experiment": "Binding of FLU to HSA solutions (40 and 25 g/L), alone and with anticancer agents (ultrafiltration, LC-MS/MS)", "details": "for % Unb / Total conc / Unb Conc: alone"}, "[4]": {"system": "human plasma proteins", "experiment": "Unbound fraction / protein binding of FLU in pooled plasma, alone and with a second drug (ultrafiltration, LC-MS/MS)", "details": "for FLU bound %: Pooled Plasma; for %Unbound / Measured Unbound Conc in Plasma / Measured Total Conc in Plasma: pooled plasma, alone, listed as FLU alone"}, "[5]": {"experiment": "Unbound fraction / protein binding of FLU in pooled plasma, alone and with a second drug (ultrafiltration, LC-MS/MS)", "details": "human, plasma"}},
  "note": "Where “and” joins values, the source holds several entries; their conditions need not be identical. Equal entries are not always repeated. Where two headings read alike, the source gives them in different places.",
  "data": [
    {"molecule": "O=c1[nH]cc(F)c(=O)[nH]1", "note": "[5-FU, 5-fluorouracil]", "values": [
      {"measurement": "protein binding", "setting": "[1]; ref 63", "value": "8–12%"}
    ]},
    {"molecule": "Cc1onc(-c2c(F)cccc2Cl)c1C(=O)N[C@@H]1C(=O)N2[C@@H]1SC(C)(C)[C@@H]2C(=O)O", "note": "[FLU, Flucloxacillin]", "values": [
      {"measurement": "% Unb", "setting": "[2]; AGP 0.9 g/L, FLU 0.2 µg/mL", "value": 39.08, "unit": "%"},
      {"measurement": "Total conc", "setting": "[2]; AGP 0.9 g/L, FLU 0.2 µg/mL", "value": 0.261, "unit": "µg/mL"},
      {"measurement": "Unb Conc", "setting": "[2]; AGP 0.9 g/L, FLU 0.2 µg/mL", "value": 0.1019, "unit": "µg/mL"},
      {"measurement": "% Unb", "setting": "[2]; AGP 0.9 g/L, FLU 20 µg/mL", "value": 22.11, "unit": "%"},
      {"measurement": "Total conc", "setting": "[2]; AGP 0.9 g/L, FLU 20 µg/mL", "value": 21.060, "unit": "µg/mL"},
      {"measurement": "Unb Conc", "setting": "[2]; AGP 0.9 g/L, FLU 20 µg/mL", "value": 4.6563, "unit": "µg/mL"},
      {"measurement": "% Unb", "setting": "[2]; AGP […], FLU 0.2 µg/mL", "value": 32.04, "unit": "%"},
      {"measurement": "Total conc", "setting": "[2]; AGP […], FLU 0.2 µg/mL", "value": 0.266, "unit": "µg/mL"},
      {"measurement": "Unb Conc", "setting": "[2]; AGP […], FLU 0.2 µg/mL", "value": 0.0852, "unit": "µg/mL"},
      {"measurement": "% Unb", "setting": "[2]; AGP […], FLU 20 µg/mL", "value": 20.62, "unit": "%"},
      {"measurement": "Total conc", "setting": "[2]; AGP […], FLU 20 µg/mL", "value": 20.745, "unit": "µg/mL"},
      {"measurement": "Unb Conc", "setting": "[2]; AGP […], FLU 20 µg/mL", "value": 4.2773, "unit": "µg/mL"},
      {"measurement": "FLU bound %", "setting": "[2]; AGPs (0.9 g/l), FLU 0.2 µg/mL", "value": 60.92, "unit": "%"},
      {"measurement": "FLU bound %", "setting": "[2]; AGPs ([…]), FLU 0.2 µg/mL", "value": 67.96, "unit": "%"},
      {"measurement": "FLU bound %", "setting": "[2]; AGPs ([…]), FLU 20 µg/mL", "value": 79.38, "unit": "%"},
      {"measurement": "FLU bound %", "setting": "[3]; Albumin (25 g/l), FLU 0.2 µg/mL", "value": 94.91, "unit": "%"},
      {"measurement": "FLU bound %", "setting": "[3]; Albumin (25 g/l), FLU 20 µg/mL", "value": 93.49, "unit": "%"},
      {"measurement": "FLU bound %", "setting": "[3]; Albumin (40 g/l), FLU 0.2 µg/mL", "value": 94.39, "unit": "%"},
      {"measurement": "FLU bound %", "setting": "[3]; Albumin (40 g/l), FLU 20 µg/mL", "value": 93.98, "unit": "%"},
      {"measurement": "% Unb", "setting": "[3]; HSA 25 g/L, FLU 0.2 µg/mL", "value": 5.09, "unit": "%"},
      {"measurement": "Total conc", "setting": "[3]; HSA 25 g/L, FLU 0.2 µg/mL", "value": 0.232, "unit": "µg/mL"},
      {"measurement": "Unb Conc", "setting": "[3]; HSA 25 g/L, FLU 0.2 µg/mL", "value": 0.012, "unit": "µg/mL"},
      {"measurement": "% Unb", "setting": "[3]; HSA 25 g/L, FLU 20 µg/mL", "value": 6.51, "unit": "%"},
      {"measurement": "Total conc", "setting": "[3]; HSA 25 g/L, FLU 20 µg/mL", "value": 18.214, "unit": "µg/mL"},
      {"measurement": "Unb Conc", "setting": "[3]; HSA 25 g/L, FLU 20 µg/mL", "value": 1.182, "unit": "µg/mL"},
      {"measurement": "% Unb", "setting": "[3]; HSA 40 g/L, FLU 0.2 µg/mL", "value": 5.61, "unit": "%"},
      {"measurement": "Total conc", "setting": "[3]; HSA 40 g/L, FLU 0.2 µg/mL", "value": 0.197, "unit": "µg/mL"},
      {"measurement": "Unb Conc", "setting": "[3]; HSA 40 g/L, FLU 0.2 µg/mL", "value": 0.011, "unit": "µg/mL"},
      {"measurement": "% Unb", "setting": "[3]; HSA 40 g/L, FLU 20 µg/mL", "value": 6.02, "unit": "%"},
      {"measurement": "Total conc", "setting": "[3]; HSA 40 g/L, FLU 20 µg/mL", "value": 16.04, "unit": "µg/mL"},
      {"measurement": "Unb Conc", "setting": "[3]; HSA 40 g/L, FLU 20 µg/mL", "value": 0.966, "unit": "µg/mL"},
      {"measurement": "fraction unbound at 30 min", "setting": "[3]; human", "value": "0.0561 to 0.0602"},
      {"measurement": "binding to plasma proteins", "setting": "[1]; healthy patients", "value": "95–97%"},
      {"measurement": "typical unbound fraction", "setting": "[1]; patients with normal HSA (>42 g/L)", "value": "3–5%"},
      {"measurement": "bound to plasma proteins", "setting": "[1]; ref 13, 17, 38", "value": "more than 95%"},
      {"measurement": "protein binding of FLU in other studies", "setting": "[1]; ref 36", "value": 95, "unit": "%"},
      {"measurement": "protein binding of FLU in other studies", "setting": "[1]; ref 38", "value": 93, "unit": "%"},
      {"measurement": "FLU bound %", "setting": "[4]; FLU 0.2 µg/mL", "value": 99.11, "unit": "%"},
      {"measurement": "FLU bound %", "setting": "[4]; FLU 20 µg/mL", "value": 98.85, "unit": "%"},
      {"measurement": "%Unbound", "setting": "[4]; FLU 0.2 µg/mL", "value": "0.7% and 0.78%"},
      {"measurement": "Measured Unbound Conc in Plasma", "setting": "[4]; FLU 0.2 µg/mL", "value": "0.0016 µg/mL and 0.0023 µg/mL"},
      {"measurement": "%Unbound", "setting": "[4]; FLU 20 µg/mL", "value": "0.98% and 0.76% and 0.73%"},
      {"measurement": "Measured Unbound Conc in Plasma", "setting": "[4]; FLU 20 µg/mL", "value": "0.1275 µg/mL and 0.21 µg/mL and 0.1766 µg/mL and 0.152 µg/mL"},
      {"measurement": "Measured Total Conc in Plasma", "setting": "[4]; FLU spiked 0.2 µg/mL", "value": "0.24 µg/mL and 0.23 µg/mL and 0.28 µg/mL"},
      {"measurement": "Measured Total Conc in Plasma", "setting": "[4]; FLU spiked 20 µg/mL", "value": "21.76 µg/mL and 21.18 µg/mL and 23.09 µg/mL and 20.722 µg/mL"},
      {"measurement": "fraction unbound at 30 min, 0.2 µg/mL", "setting": "[5]; %Unbound, pooled plasma, FLU 0.2 µg/mL, alone", "value": 0.0066},
      {"measurement": "fraction unbound at 30 min, 20 µg/mL", "setting": "[5]; %Unbound, pooled plasma, FLU 20 µg/mL, alone", "value": 0.0059},
      {"measurement": "fraction unbound at 30 min", "setting": "[5]; protein binding of FLU, spiked pooled plasma, 37 °C, 30 min, range over tested FLU concentrations", "value": "0.0059 to 0.0098"}
    ]},
    {"molecule": "Cc1ccc(NC(=O)c2ccc(CN3CCN(C)CC3)cc2)cc1Nc1nccc(-c2cccnc2)n1", "note": "[IMA, imatinib]", "values": [
      {"measurement": "bound to human plasma proteins", "setting": "[1]; ref 54", "value": 95, "unit": "%"}
    ]}
  ]
}
